From PMC8364686, “Safety, tolerability, pharmacokinetics and pharmacodynamics of single oral doses of BI 187004, an inhibitor of 11beta-hydroxysteroid dehydrogenase-1, in healthy male volunteers with overweight or obesity” (Clinical Diabetes and Endocrinology, 2021)
Where “and” joins values, the source holds several entries; their conditions need not be identical. Equal entries are not always repeated. Entries after “also recorded” stand apart in the source; their conditions may differ. Where two headings read alike, the source gives them in different places.

Tests used:
[1] = BI 187004 concentration in subcutaneous adipose tissue biopsies (LC–MS/MS); assay type: in vivo, human; details: for Kp at 10 h / Kp at 24 h / concentration at 10 h / concentration at 24 h: male, human, oral; for Kp at 10 h: read-out: AT:plasma ratio (range) 10 h; for Kp at 24 h: read-out: AT:plasma ratio (range) 24 h; for concentration at 10 h: read-out: AT C10 gMean (range); for concentration at 24 h: read-out: AT C24 gMean (range)
Protocol: The assay was qualified for the BI 187004 concentration range of 2.5—10,000 ng/g. The BI 187004 AT concentration data for study samples were generated from seven analytical runs. For each run, the acceptance criteria for the calibration standards and QC samples were met. Acceptance criteria for all sample analysis runs were ≤ 25% RSD (relative standard deviation / precision) and ± 25% RE (relative error / accuracy) for calibration standards and quality control samples.

[2] = system: healthy male volunteers with overweight or obesity; assay: Safety and tolerability (adverse events, clinical laboratory, vital signs, ECG); assay type: in vivo, human
Protocol: Safety and tolerability of BI 187004 were assessed in a descriptive way using the following investigations: recording of adverse events, clinical laboratory parameters (haematology, coagulation, enzymes, substrates, electrolytes, hormones, and urinalysis), vital signs (blood pressure, puls rate), 12-lead ECG (electrocardiogram) with special attention to QTc prolongation, and physical examination (occurrence of findings).

[3] = system: HPA axis; assay: Total urinary corticosteroid excretion (aTHF + THF + UFF + UFE + THE); details: for Total corticosteroids 0 – 24h (day 1) gMean (gCV [%]) / Total corticosteroids % of baseline 0 – 24h (day 1)/-24 – 0h (day -1) gMean (gCV): urine; for Total corticosteroids placebo corrected % change from baseline, adjusted gMean (90% CI) / Total corticosteroids placebo corrected % of baseline, adjusted gMean (90% CI): urine 0–24 h, ANCOVA
Protocol: The urinary samples for determination of urinary free cortisol (UFF), urinary free cortisone (UFE), urinary total cortisol (UTF), urinary total cortisone (UTE), and their metabolites 5alpha- or allo-tetrahydrocortisol (aTHF), 5beta-tetrahydrocortisol (THF), and tetrahydrocortisone (THE) were analyzed using a validated LC–MS/MS method.
The placebo corrected percentage change from baseline of the data shown in Supplementary Table 1 and 2 was analyzed statistically by an ANCOVA model with baseline as covariate on the logarithmic scale.

N#Cc1ccc2c(c1)[C@H]1CCCN(C(=O)c3ccc4[nH]cnc4c3)[C@H]1C2 [BI 187004]
AT:plasma ratio (range) 24 h ([1]; 10 mg single dose, 24 h, only range printed): – (9.58 – 20.1)
AT C24 gMean (range) ([1]; 10 mg single dose, adipose tissue, 24 h, only range printed): – (9.91 – 22.6) nmol/L
Plasma concentration compared with AT concentration (times higher) ([1]; 24 h post dosing): approximately 10
Ratio ATC24/PlasmaC24, range across dose groups ([1]; 24 h post dosing): 8.58—11.4
Kp at 10 h ([1]; subcutaneous adipose tissue / plasma, 40 mg single dose): 10.1
Kp at 24 h ([1]; subcutaneous adipose tissue / plasma, 40 mg single dose, 24 h): 8.58
Kp at 10 h ([1]; subcutaneous adipose tissue / plasma, 80 mg single dose): 8.36
Kp at 24 h ([1]; subcutaneous adipose tissue / plasma, 80 mg single dose, 24 h): 9.62
Kp at 10 h ([1]; subcutaneous adipose tissue / plasma, 160 mg single dose): 13.7
Kp at 24 h ([1]; subcutaneous adipose tissue / plasma, 160 mg single dose, 24 h): 10.3
Kp at 24 h ([1]; subcutaneous adipose tissue / plasma, 240 mg single dose, 24 h): 9.96
Kp at 10 h ([1]; subcutaneous adipose tissue / plasma, 360 mg single dose): 16.2
Kp at 24 h ([1]; subcutaneous adipose tissue / plasma, 360 mg single dose, 24 h): 11.4
Kp at 10 h ([1]; subcutaneous adipose tissue and plasma, 240 mg single dose): 25.1
Kp at 10 h ([1]; subcutaneous adipose tissue, 10 mg single dose): 10.3
concentration at 10 h ([1]; subcutaneous adipose tissue, 10 mg single dose, adipose tissue): 0.0179 µM
Kp at 10 h ([1]; subcutaneous adipose tissue, 20 mg single dose): 9.97
Kp at 24 h ([1]; subcutaneous adipose tissue, 20 mg single dose, 24 h): 10.8
concentration at 10 h ([1]; subcutaneous adipose tissue, 20 mg single dose, adipose tissue): 0.0381 µM
concentration at 24 h ([1]; subcutaneous adipose tissue, 20 mg single dose, adipose tissue, 24 h): 0.0175 µM
concentration at 10 h ([1]; subcutaneous adipose tissue, 40 mg single dose, adipose tissue): 0.0803 µM
concentration at 24 h ([1]; subcutaneous adipose tissue, 40 mg single dose, adipose tissue, 24 h): 0.0275 µM
concentration at 10 h ([1]; subcutaneous adipose tissue, 80 mg single dose, adipose tissue): 0.128 µM
concentration at 24 h ([1]; subcutaneous adipose tissue, 80 mg single dose, adipose tissue, 24 h): 0.0845 µM
concentration at 10 h ([1]; subcutaneous adipose tissue, 160 mg single dose, adipose tissue): 0.412 µM
concentration at 24 h ([1]; subcutaneous adipose tissue, 160 mg single dose, adipose tissue, 24 h): 0.168 µM
concentration at 10 h ([1]; subcutaneous adipose tissue, 240 mg single dose, adipose tissue): 0.653 µM
concentration at 24 h ([1]; subcutaneous adipose tissue, 240 mg single dose, adipose tissue, 24 h): 0.212 µM
concentration at 10 h ([1]; subcutaneous adipose tissue, 360 mg single dose, adipose tissue): 0.857 µM
concentration at 24 h ([1]; subcutaneous adipose tissue, 360 mg single dose, adipose tissue, 24 h): 0.307 µM
Incidence of headache ([2]; 3 out of 54 subjects receiving BI 187004): 5.6%
Incidence of drug-related adverse events ([2]; all 9 BI 187004 dose groups (9 subjects)): 16.7%
Subjects reporting at least 1 adverse event ([2]; all BI 187004 dose groups (15 subjects)): 27.8%
Clinical laboratory evaluations, vital signs, ECG findings ([2]; single oral doses 2.5–360 mg): No clinically relevant deviations; also recorded: no notable findings
Deaths, AEs leading to discontinuation, serious AEs ([2]; single oral doses 2.5–360 mg): no serious AEs
Hypoglycemic episodes ([2]; single oral doses 2.5–360 mg): No hypoglycemic episodes
Safety and tolerability ([2]; single oral doses 2.5–360 mg): well tolerated and safe; also recorded: safe and well tolerated
Total corticosteroids 0 – 24h (day 1) gMean (gCV [%]) ([3]; 2.5 mg): 16067.0 (18.128) μg
Total corticosteroids % of baseline 0 – 24h (day 1)/-24 – 0h (day -1) gMean (gCV) ([3]; 2.5 mg): 161.3 (44.4) %
Total corticosteroids placebo corrected % change from baseline, adjusted gMean (90% CI) ([3]; 2.5 mg): 30.3 (11.5, 52.2) 0.0062%
Total corticosteroids placebo corrected % of baseline, adjusted gMean (90% CI) ([3]; 2.5 mg): 130.3% and 130.3 (111.5, 152.2) %
Total corticosteroids 0 – 24h (day 1) gMean (gCV [%]) ([3]; 5 mg): 24324.0 (23.620) μg
Total corticosteroids % of baseline 0 – 24h (day 1)/-24 – 0h (day -1) gMean (gCV) ([3]; 5 mg): 179.9 (21.8) %
Total corticosteroids placebo corrected % change from baseline, adjusted gMean (90% CI) ([3]; 5 mg): 72.1 (47.7, 100.6) <0.0001%
Total corticosteroids placebo corrected % of baseline, adjusted gMean (90% CI) ([3]; 5 mg): 172.1 (147.7, 200.6) %
Total corticosteroids 0 – 24h (day 1) gMean (gCV [%]) ([3]; 10 mg): 23965.4 (24.142) μg
Total corticosteroids % of baseline 0 – 24h (day 1)/-24 – 0h (day -1) gMean (gCV) ([3]; 10 mg): 178.1 (24.5) %
Total corticosteroids placebo corrected % change from baseline, adjusted gMean (90% CI) ([3]; 10 mg): 69.9 (45.8, 98.1) <0.0001%
Total corticosteroids placebo corrected % of baseline, adjusted gMean (90% CI) ([3]; 10 mg): 169.9 (145.8, 198.1) %
Total corticosteroids 0 – 24h (day 1) gMean (gCV [%]) ([3]; 20 mg): 27240.6 (5.276) μg
Total corticosteroids % of baseline 0 – 24h (day 1)/-24 – 0h (day -1) gMean (gCV) ([3]; 20 mg): 174.7 (31.3) %
Total corticosteroids placebo corrected % change from baseline, adjusted gMean (90% CI) ([3]; 20 mg): 80.9 (54.9, 111.2) <0.0001%
Total corticosteroids placebo corrected % of baseline, adjusted gMean (90% CI) ([3]; 20 mg): 180.9 (154.9, 211.2) %
Total corticosteroids 0 – 24h (day 1) gMean (gCV [%]) ([3]; 40 mg): 24484.7 (17.661) μg
Total corticosteroids % of baseline 0 – 24h (day 1)/-24 – 0h (day -1) gMean (gCV) ([3]; 40 mg): 213.9 (24.4) %
Total corticosteroids placebo corrected % change from baseline, adjusted gMean (90% CI) ([3]; 40 mg): 86.6 (60.0, 117.5) <0.0001%
Total corticosteroids placebo corrected % of baseline, adjusted gMean (90% CI) ([3]; 40 mg): 186.6 (160.0, 217.5) %
Total corticosteroids 0 – 24h (day 1) gMean (gCV [%]) ([3]; 80 mg): 29884.0 (24.608) μg
Total corticosteroids % of baseline 0 – 24h (day 1)/-24 – 0h (day -1) gMean (gCV) ([3]; 80 mg): 189.7 (16.0) %
Total corticosteroids placebo corrected % change from baseline, adjusted gMean (90% CI) ([3]; 80 mg): 97.5 (69.1, 130.7) <0.0001%
Total corticosteroids placebo corrected % of baseline, adjusted gMean (90% CI) ([3]; 80 mg): 197.5% and 197.5 (169.1, 230.7) %
Total corticosteroids 0 – 24h (day 1) gMean (gCV [%]) ([3]; 160 mg): 25409.0 (28.223) μg
Total corticosteroids % of baseline 0 – 24h (day 1)/-24 – 0h (day -1) gMean (gCV) ([3]; 160 mg): 171.9 (13.1) %
Total corticosteroids placebo corrected % change from baseline, adjusted gMean (90% CI) ([3]; 160 mg): 72.8 (48.1, 101.6) <0.0001%
Total corticosteroids placebo corrected % of baseline, adjusted gMean (90% CI) ([3]; 160 mg): 172.8 (148.1, 201.6) %
Total corticosteroids 0 – 24h (day 1) gMean (gCV [%]) ([3]; 240 mg): 26872.4 (19.594) μg
Total corticosteroids % of baseline 0 – 24h (day 1)/-24 – 0h (day -1) gMean (gCV) ([3]; 240 mg): 174.5 (17.4) %
Total corticosteroids placebo corrected % change from baseline, adjusted gMean (90% CI) ([3]; 240 mg): 79.4 (53.7, 109.5) <0.0001%
Total corticosteroids placebo corrected % of baseline, adjusted gMean (90% CI) ([3]; 240 mg): 179.4 (153.7, 209.5) %
Total corticosteroids 0 – 24h (day 1) gMean (gCV [%]) ([3]; 360 mg): 26152.2 (30.046) μg
Total corticosteroids % of baseline 0 – 24h (day 1)/-24 – 0h (day -1) gMean (gCV) ([3]; 360 mg): 168.0 (28.0) %
Total corticosteroids placebo corrected % change from baseline, adjusted gMean (90% CI) ([3]; 360 mg): 73.8 (48.8, 102.9) <0.0001%
Total corticosteroids placebo corrected % of baseline, adjusted gMean (90% CI) ([3]; 360 mg): 173.8 (148.8, 202.9) %
Total urinary corticosteroid excretion (sum of UFF, UFE, aTHF, THF and THE), maximum across doses ([3]; placebo corrected % of baseline): up to 197.5%
